From patent publication US20230109134A1, “PYRIDAZINONE OR PYRIDAZINE COMPOUND AND DERIVATIVE AND PHARMACEUTICAL COMPOSITION THEREOF” (Suzhou Zelgen Biopharmaceuticals Co., Ltd., priority 2019, published 2023)

How the values were obtained:
[1] = Pharmacokinetic testing evaluation, Test Example 4 (rat plasma); type: in vivo, SD rats; conditions: for plasma exposure AUC relative to compound MGL-3196: rats, 10 mg/kg intragastric, Table 5
Description: (§1) Male SD rats, weighing about 220 g, were divided into 3 groups after fasting overnight, with 4 rats in each group. The first group was intragastrically administered 10 mg/kg solution of compound MGL-3196 prepared in Example 1, the second group was intragastrically administered 10 mg/kg solution of compound 2A prepared in Example 2 (The dosage is calculated by the relative content of compound MGL-3196 prepared in Example 1), and the third group was intragastrically administered 10 mg/kg solution of compound 2B prepared in Example 2 (The dosage is calculated by the relative content of compound MGL-3196 prepared in Example 1), wherein the vehicle of the solution of compound MGL-3196, compound 2A, and compound 2B is DMSO/PEG400. Blood was collected from each group at 0.5, 1.0, 2.0, 4.0, 6.0, 8.0, 12 and 24 hours after administration, and the concentration of active ingredient MGL-3196 in plasma was determined by LC/MS/MS.

[2] = tested on: Diet-Induced Obesity (DIO) C57Bl/6J mouse; assay: Diet-induced obesity (DIO) C57Bl/6J mouse model; type: in vivo; conditions: DIO C57Bl/6J mice, 1, 3 or 10 mg/kg intragastric, 23 consecutive days
Description: 6-week-old C57Bl/6J mice were given a high-fat diet for 34 weeks. Mice were intragastrically administered vehicle (2% Klucel LF, 0.1% Tween 80 in water); 1, 3 or 10 mg/kg of compound 2A, compound 2B prepared in Example 2 or compound MGL-3196 prepared in Example 1 starting from day 0 (1st day of 35 weeks) respectively, 9 mice in each group, for 23 consecutive days. In a parallel study, mice were intragastrically administered vehicle (Dulbecco's phosphate buffered saline, pH adjusted to 9.0 with 1N NaOH) or 10, 30 or 100 μg/kg triiodothyronine (T3) starting from day 0 (day 1 of week 35) respectively, 9 mice in each group, for 23 consecutive days. Body weight and food intake were monitored during the study. BMD and body composition analyses were performed on day 22. At necropsy on day 23, organ weighing was performed and cholesterol and other blood biochemical parameters of blood samples were evaluated.

[3] = Drug concentrations in liver tissue, Test Example 5; type: in vivo, ICR mice; conditions: mouse liver at 1 hr and 6 hr, 10 mg/kg intragastric
Description: ICR mice, weighing 20-30 g, were divided into 4 groups after fasting overnight, with 8 mice in each group. The first group was intragastrically administered 10 mg/kg solution of compound MGL-3196 prepared in Example 1, the second group was intragastrically administered 10 mg/kg solution of compound 2A prepared in Example 2 (The dosage is calculated by the relative content of compound MGL-3196 prepared in Example 1), the third group was intragastrically administered 10 mg/kg solution of compound 2B prepared in Example 2 (The dosage is calculated by the relative content of compound MGL-3196 prepared in Example 1) and the fourth group was intragastrically administered 10 mg/kg solution of compound 6B prepared in Example 6 (The dosage is calculated by the relative content of compound MGL-3196 prepared in Example 1), wherein the vehicle of the solution of compound MGL-3196, compound 2A, compound 2B and compound 6B is DMSO/PEG400. The livers of mice in each group were collected at 1 hr and 6 hr after administration, respectively, and the concentration of the active ingredient MGL-3196 in the liver was determined by LC/MS/MS.

[4] = Pharmacokinetic testing evaluation, Test Example 3 (rat plasma); type: in vivo, SD rats
Description: as §1, with “1, and” for “1,”, “6B” for “2A”, “6” for “2 (The dosage is calculated by the relative content of compound MGL-3196 prepared in Example 1), and the third group was intragastrically administered 10 mg/kg solution of compound 2B prepared in Example 2”, “MGL-3196” for “MGL-3196, compound 2A,”, “6B prepared in Example 6” for “2B”

[5] = Pharmacokinetic testing evaluation, Test Example 2 (rat plasma); type: in vivo; conditions: male SD rats, intragastric 10 mg/kg (calculated based on MGL-3196), DMSO/PEG400; MGL-3196 measured in plasma; n = 4, mean
Description: Male SD rats, weighing about 220 g, were divided into 2 groups after fasting overnight, with 4 rats in each group. The first group was intragastrically administered 10 mg/kg solution of compound MGL-3196 prepared in Example 1, and the second group was intragastrically administered 10 mg/kg solution of compound 6A prepared in Example 6 (The dosage is calculated by the relative content of compound MGL-3196 prepared in Example 1), wherein the vehicle of the solution of MGL-3196 compound and compound 6A prepared in Example 6 is DMSO/PEG400. Blood was collected from each group at 0.5, 1.0, 2.0, 4.0, 6.0, 8.0, 12 and 24 hours after administration, and the concentration of active ingredient MGL-3196 in plasma was determined by LC/MS/MS.

[6] = Pharmacokinetic testing evaluation, Test Example 1 (rat plasma); type: in vivo; conditions: male SD rats, intragastric 10 mg/kg (calculated based on MGL-3196), DMSO/PEG400; plasma concentration of MGL-3196; n = 4, mean
Description: Male SD rats, weighing about 220 g, were divided into 2 groups after fasting overnight, with 4 rats in each group. The first group was intragastrically administered 10 mg/kg solution of compound MGL-3196 prepared in Example 1, and the second group was intragastrically administered 10 mg/kg solution of compound of Example 5 of WO2009037172A1 (The dosage is calculated by the relative content of compound MGL-3196 prepared in Example 1), wherein the vehicle of the solution of compound MGL-3196 and compound of Example 5 of WO2009037172A1 is DMSO/PEG400. Blood was collected from each group at 0.5, 1.0, 2.0, 4.0, 6.0, 8.0, 12 and 24 hours after administration, and the concentration of active ingredient MGL-3196 in plasma was determined by LC/MS/MS.

[7] = male SD rats, intragastric 10 mg/kg (calculated based on MGL-3196), DMSO/PEG400, MGL-3196 measured in plasma, n = 4, mean

SMILES	plasma exposure AUC relative to compound MGL-3196 [1] [times]	efficacy in lowering cholesterol and liver fat [2]	drug concentration in mouse liver compared to MGL-3196 [3]	plasma exposure AUC relative to compound MGL-3196 ([4]; rats, 10 mg/kg intragastric, Table 4) [times]	T1/2 [5] [h]	Tmax [5] [h]	T1/2 [1, 7] [h]	Tmax [1, 7] [h]	T1/2 [6] [h]	Tmax [6] [h]	T1/2 [4, 7] [h]	Tmax [4, 7] [h]
CC(C)OC(=O)OC(C)n1nc(Oc2c(Cl)cc(-n3nc(C#N)c(=O)[nH]c3=O)cc2Cl)cc(C(C)C)c1=O (centres unmarked) [Compound 2A, 1-(3-(2,6-dichloro-4-(6-cyano-3,5-dioxo-4,5-dihydro-1,2,4-triazin-2(3H)-yl)phenoxy)-5-isopropyl-6-oxopyridazin-1(6H)-yl)ethyl Isopropyl Carbonate]	2.4	excellent efficacy in lowering cholesterol and liver fat	higher drug concentrations	–	–	–	–	–	–	–	–	–
CC(C)OC(=O)OC(C)Oc1nnc(Oc2c(Cl)cc(-n3nc(C#N)c(=O)[nH]c3=O)cc2Cl)cc1C(C)C (centres unmarked) [Compound 2B, 1-((6-(2,6-dichloro-4-(6-cyano-3,5-dioxo-4,5-dihydro-1,2,4-triazin-2(3H)-yl)phenoxy)-4-isopropylpyridazin-3-yl)oxy)ethyl Isopropyl Carbonate]	1.87	excellent efficacy in lowering cholesterol and liver fat	higher drug concentrations	–	–	–	–	–	–	–	–	–
CC(C)OC(=O)OCOc1nnc(Oc2c(Cl)cc(-n3nc(C#N)c(=O)[nH]c3=O)cc2Cl)cc1C(C)C [Compound 6B, ((6-(2,6-dichloro-4-(6-cyano-3,5-dioxo-4,5-dihydro-1,2,4-triazin-2(3H)-yl)phenoxy)-4-isopropylpyridazin-3-yl)oxy)methyl Isopropyl Carbonate]	–	excellent efficacy in lowering cholesterol and liver fat	higher drug concentrations	2.0	–	–	–	–	–	–	–	–
CC(C)c1cc(Oc2c(Cl)cc(-n3nc(C#N)c(=O)[nH]c3=O)cc2Cl)n[nH]c1=O [MGL-3196, 2-(3,5-dichloro-4-((5-isopropyl-6-oxo-1,6-dihydropyridazin-3-yl)oxy)phenyl)-3,5-dioxo-2,3,4,5-tetrahydro-1,2,4-triazin-6-carbonitrile]	–	–	–	–	3.54	5.00	3.73	4.5	3.35	2.75	3.55	6.0
